Here are results for 2 compounds from PMC5775429, “LY2087101 and dFBr share transmembrane binding sites in the (α4)3(β2)2 Nicotinic Acetylcholine Receptor” (Scientific Reports, 2018).

One assay has as its target (α4E92I)3(β2)2 nAChR (Homo sapiens, UniProt P43681, E92I). Nature of the assay: Two-electrode voltage-clamp of ACh-induced currents in Xenopus oocytes. Format: cell-based. The settings on record: 10 µM ACh + 1 µM LY2087101 vs 10 µM ACh alone. As for the experimental part: (§1) For amino acid substitutions within the α4 nAChR subunit, point mutations were introduced into pSP64ployA plasmid with cDNA encoding for human α4 nAChR subunit with mutagenic primer pairs using the Quick Change II Site-Directed Mutagenesis Kit (Agilent Technologies) then confirmed by DNA sequencing (GENEWIZ, LLC, South Plainfield, NJ). cRNA transcripts suitable for oocyte expression were prepared in vitro from linearized plasmids [α3 (BamH1), α4 (AseI), β2 (PvuII), β4 (XhoI)] using mMESSAGE mMACHINE high yield capped RNA transcription kits (Ambion) and purified on NucAway Spin column (Invitrogen). cRNA concentration was determined by spectroscopy (Concentration (ug/ul) = Abs260 * 40), aliquoted and stored at −80 °C until used.
(§2) Ovarian lobules were surgically harvested from oocytes-positive female Xenopus laevis (NASCO, Fort Atkinson, WI) according to an animal use protocol approved by the Texas A&M Health Sciences Center Institutional Animals Care and Use Committee. The Texas A&M Health Sciences Center Research Facility is registered as an animal research facility with the United States Department of Agriculture and is fully accredited by the American Association for Accreditation of Laboratory Animal Care (AAALAC). For oocytes defolliculation, ovarian lobes were treated with 3 mg/ml collagenase type 2 (Worthington Biomedical, Lakewood, NJ) in Ca + 2-free buffer (85 mM NaCl, 2.5 mM KCl, 1 mM MgCl2, 5 mM HEPES, pH 7.6). Collagenase treatment was allowed to proceed for 3 hours at room temperature with gentle shaking then oocytes were washed several times with buffer to remove collagenase then with ND96-gentamicine buffer. Healthy Stage V and VI oocytes were visually selected and maintained at 18 °C in modified ND96-gentamicine buffer (96 mM NaCl, 2 mM KCl, 1.8 mM CaCl2, 1 mM MgCl2, 5 mM HEPES, 50 µg/ml gentamicin, pH 7.6). Oocytes were injected with 50–100 ng of the desired nAChR subunits cRNA mix at ratios of 8α:1β or 1α:8β to express nAChRs with subunit stoichiometries of 3α:2β (low agonist sensitivity) or 2α:3β (high agonist sensitivity), respectively.
(§3) Two-electrode voltage clamp recording of ACh-induced responses of Xenopus oocytes were performed 24–72 h following injection of nAChR subunit cRNA mix to ensure adequate nAChRs expression. Xenopus oocytes were placed in a custom-made recording chamber that is connected to eight channels automated perfusion system (Warner Instruments) and voltage-clamped at −50 mV using Oocyte Clamp OC-725B (Warner Instruments). Oocytes were continuously perfused with recording buffer (100 mM NaCl, 2 mM KCl, 1 mM CaCl2, 0.8 mM MgCl2, 1 mM EGTA, 10 mM Hepes, pH 7.5) except during periods of drug applications. […] Currents were digitized using Digidata 1550 A (Axon Instruments) and peak currents were quantified using pCLAMP 10 (Axon Instruments) then normalized and analyzed using Excels 2010 (Microsoft corporation) and SigmaPlot 11.0 (Systat Software).

Assay [1] deals with T1, (α4G67E)3(β2)2 nAChR (Homo sapiens, UniProt P43681, G67E). The description is as above. As to conditions: 10 µM ACh + 1 µM LY2087101 vs 10 µM ACh alone. Format: cell-based. As for the experimental part:
as §1, §2, §3

In another assay the target is (α4H142L)3(β2)2 nAChR (Homo sapiens, UniProt P43681, H142L). Described as above. Type of assay: cell-based. As to conditions: 10 µM ACh + 1 µM LY2087101 vs 10 µM ACh alone. As for the experimental part: as §1, §2, §3
Another assay deals with (α4H94N)3(β2)2 nAChR (Homo sapiens, UniProt P43681, H94N). The assay is described as above. Format: cell-based. As to conditions: 10 µM ACh + 1 µM LY2087101 vs 10 µM ACh alone. As for the experimental part: as §1, §2, §3
Assay [2] deals with T2, (α4L63I)3(β2)2 nAChR (Homo sapiens, UniProt P43681, L63I). The assay is described as above. Type of assay: cell-based. As to conditions: 10 µM ACh + 1 µM LY2087101 vs 10 µM ACh alone. As for the experimental part:
as §1, §2, §3

Assay [3] deals with T3, (α4Q150T)3(β2)2 nAChR (Homo sapiens, UniProt P43681, Q150T). The description is as above. Format: cell-based. The settings on record: 10 µM ACh + 1 µM LY2087101 vs 10 µM ACh alone. On the procedure:
as §1, §2, §3

Another assay concerns the target (α4R148E)3(β2)2 nAChR (Homo sapiens, UniProt P43681, R148E). Described as above. As to conditions: 10 µM ACh + 1 µM LY2087101 vs 10 µM ACh alone. Format: cell-based. On the procedure: as §1, §2, §3
In the next assay the target is (α4R65H)3(β2)2 nAChR (Homo sapiens, UniProt P43681, R65H). The assay is described as above. Format: cell-based. The settings on record: 10 µM ACh + 1 µM LY2087101 vs 10 µM ACh alone. As for the experimental part: as §1, §2, §3
In assay [4] the target is T4, (α4T152I)3(β2)2 nAChR (Homo sapiens, UniProt P43681, T152I). Described as above. Format: cell-based. The settings on record: 10 µM ACh + 1 µM LY2087101 vs 10 µM ACh alone. On the procedure:
as §1, §2, §3

In the next assay the target is T5, α3β4 nAChR (Homo sapiens, UniProt P30926+P32297).
T5 construct: expressed in transfected cells; host or cells: Xenopus laevis oocytes injected with cRNA
The description is as above. Format: cell-based. As to conditions: 1 μM PAM. As for the experimental part: Next, Xenopus oocytes were injected with RNA mixes of […], α3:β4, […], or α4:β4 at ratios of 8:1, 1:1, or 1:8 to express nAChRs with different subunit composition and with various α:β ratios.
as §2
Oocytes were continuously perfused with recording buffer (100 mM NaCl, 2 mM KCl, 1 mM CaCl2, 0.8 mM MgCl2, 1 mM EGTA, 10 mM Hepes, pH 7.5) except during periods of drug applications.

A further assay concerns the target T6, (α4)3(β2)2 nAChR (Homo sapiens, UniProt P17787+P43681).
T6 construct: expressed in transfected cells; host or cells: Xenopus laevis oocytes injected with cRNA
The settings on record: cited from earlier work.

Assay [5] addresses T2, (α4L63I)3(β2)2 nAChR. More on the design: method as in PMID 28446611. As to conditions: 10 µM ACh + 1 µM dFBr vs 10 µM ACh alone; data reported previously ref 29; cited from earlier work.
The target in assay [6] is T1, (α4G67E)3(β2)2 nAChR. Also on record: method as in PMID 28446611. As to conditions: 10 µM ACh + 1 µM dFBr vs 10 µM ACh alone; data reported previously ref 29; cited from earlier work.
For assay [7], the target named is T3, (α4Q150T)3(β2)2 nAChR. More on the design: method as in PMID 28446611. The settings on record: 10 µM ACh + 1 µM dFBr vs 10 µM ACh alone; data reported previously ref 29; cited from earlier work.
In assay [8] the target is T4, (α4T152I)3(β2)2 nAChR. Also on record: method as in PMID 28446611. The settings on record: 10 µM ACh + 1 µM dFBr vs 10 µM ACh alone; data reported previously ref 29; cited from earlier work.
The subject of assay [9] is non-induced compulsive-like mouse model. More on the design: method as in PMID 23712602, PMID 28446611, PMID 28809075, PMID 28105008. The settings on record: cited from earlier work.

The structures appear in SMILES notation. Where two headings read alike, the source gives them in different places. Marks after values point to notes of the source that are not given here.

T2 sequence (P43681 29-627 L63I limits assumed): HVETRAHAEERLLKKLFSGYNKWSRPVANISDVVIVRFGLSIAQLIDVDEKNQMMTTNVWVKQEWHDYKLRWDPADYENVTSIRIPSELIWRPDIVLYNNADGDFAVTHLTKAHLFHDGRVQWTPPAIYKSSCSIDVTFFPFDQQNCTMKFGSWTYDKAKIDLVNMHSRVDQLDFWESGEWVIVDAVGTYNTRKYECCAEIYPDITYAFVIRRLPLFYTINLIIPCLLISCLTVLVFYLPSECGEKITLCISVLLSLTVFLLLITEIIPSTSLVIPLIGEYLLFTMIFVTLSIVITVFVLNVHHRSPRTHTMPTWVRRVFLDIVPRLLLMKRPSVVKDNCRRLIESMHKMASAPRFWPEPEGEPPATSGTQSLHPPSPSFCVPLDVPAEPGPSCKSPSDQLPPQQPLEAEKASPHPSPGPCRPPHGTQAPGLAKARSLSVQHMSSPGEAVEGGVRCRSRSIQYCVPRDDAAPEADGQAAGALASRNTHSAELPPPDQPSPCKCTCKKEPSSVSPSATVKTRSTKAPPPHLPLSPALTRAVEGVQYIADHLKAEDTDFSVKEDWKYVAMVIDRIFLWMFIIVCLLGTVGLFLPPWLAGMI
T2 sequence (P17787 26-502 partner): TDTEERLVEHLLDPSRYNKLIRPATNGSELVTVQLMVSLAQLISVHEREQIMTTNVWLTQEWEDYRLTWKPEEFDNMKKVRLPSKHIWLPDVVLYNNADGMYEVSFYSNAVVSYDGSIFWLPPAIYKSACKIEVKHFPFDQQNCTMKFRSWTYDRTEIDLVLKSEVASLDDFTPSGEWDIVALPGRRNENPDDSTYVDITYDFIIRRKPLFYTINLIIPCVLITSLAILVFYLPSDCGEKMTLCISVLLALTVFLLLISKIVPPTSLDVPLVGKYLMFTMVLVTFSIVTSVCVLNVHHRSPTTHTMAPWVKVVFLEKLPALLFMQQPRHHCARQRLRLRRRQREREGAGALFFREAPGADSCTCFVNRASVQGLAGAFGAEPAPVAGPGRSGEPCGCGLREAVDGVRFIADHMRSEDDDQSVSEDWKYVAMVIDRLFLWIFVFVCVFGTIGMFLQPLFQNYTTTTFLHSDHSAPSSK
T4 sequence (P43681 29-627 T152I limits assumed): as the sequence (P43681 29-627 L63I limits assumed) above, with I35L, T124I counted along it
T4 sequence (P17787 26-502 partner): as the sequence (P17787 26-502 partner) above
T6 sequence (P43681 29-627 limits assumed): as the sequence (P43681 29-627 L63I limits assumed) above, with I35L counted along it
T6 sequence (P17787 26-502): as the sequence (P17787 26-502 partner) above
T3 sequence (P43681 29-627 Q150T limits assumed): as the sequence (P43681 29-627 L63I limits assumed) above, with I35L, Q122T counted along it
T3 sequence (P17787 26-502 partner): as the sequence (P17787 26-502 partner) above
T1 sequence (P43681 29-627 G67E limits assumed): as the sequence (P43681 29-627 L63I limits assumed) above, with I35L, G39E counted along it
T1 sequence (P17787 26-502 partner): as the sequence (P17787 26-502 partner) above
(α4H94N)3(β2)2 nAChR, sequence (P43681 29-627 H94N limits assumed): as the sequence (P43681 29-627 L63I limits assumed) above, with I35L, H66N counted along it
(α4H94N)3(β2)2 nAChR, sequence (P17787 26-502 partner): as the sequence (P17787 26-502 partner) above
(α4E92I)3(β2)2 nAChR, sequence (P43681 29-627 E92I limits assumed): as the sequence (P43681 29-627 L63I limits assumed) above, with I35L, E64I counted along it
(α4E92I)3(β2)2 nAChR, sequence (P17787 26-502 partner): as the sequence (P17787 26-502 partner) above
(α4R148E)3(β2)2 nAChR, sequence (P43681 29-627 R148E limits assumed): as the sequence (P43681 29-627 L63I limits assumed) above, with I35L, R120E counted along it
(α4R148E)3(β2)2 nAChR, sequence (P17787 26-502 partner): as the sequence (P17787 26-502 partner) above
(α4H142L)3(β2)2 nAChR, sequence (P43681 29-627 H142L limits assumed): as the sequence (P43681 29-627 L63I limits assumed) above, with I35L, H114L counted along it
(α4H142L)3(β2)2 nAChR, sequence (P17787 26-502 partner): as the sequence (P17787 26-502 partner) above
(α4R65H)3(β2)2 nAChR, sequence (P43681 29-627 R65H limits assumed): as the sequence (P43681 29-627 L63I limits assumed) above, with I35L, R37H counted along it
(α4R65H)3(β2)2 nAChR, sequence (P17787 26-502 partner): as the sequence (P17787 26-502 partner) above
T5 sequence (P32297 32-505): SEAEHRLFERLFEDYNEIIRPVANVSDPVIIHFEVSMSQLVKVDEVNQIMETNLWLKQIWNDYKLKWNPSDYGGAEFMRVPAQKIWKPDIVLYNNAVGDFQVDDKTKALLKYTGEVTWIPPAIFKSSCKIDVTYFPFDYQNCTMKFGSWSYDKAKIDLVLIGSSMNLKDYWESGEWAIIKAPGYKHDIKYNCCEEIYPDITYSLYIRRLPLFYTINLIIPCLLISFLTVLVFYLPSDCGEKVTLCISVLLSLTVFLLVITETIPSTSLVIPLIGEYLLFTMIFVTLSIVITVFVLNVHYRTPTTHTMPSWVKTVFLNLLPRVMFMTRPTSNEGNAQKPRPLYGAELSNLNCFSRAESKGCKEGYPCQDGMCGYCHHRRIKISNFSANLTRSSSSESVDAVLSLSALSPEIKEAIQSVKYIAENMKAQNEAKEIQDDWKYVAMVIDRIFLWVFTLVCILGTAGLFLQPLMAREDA
T5 sequence (P30926 22-498): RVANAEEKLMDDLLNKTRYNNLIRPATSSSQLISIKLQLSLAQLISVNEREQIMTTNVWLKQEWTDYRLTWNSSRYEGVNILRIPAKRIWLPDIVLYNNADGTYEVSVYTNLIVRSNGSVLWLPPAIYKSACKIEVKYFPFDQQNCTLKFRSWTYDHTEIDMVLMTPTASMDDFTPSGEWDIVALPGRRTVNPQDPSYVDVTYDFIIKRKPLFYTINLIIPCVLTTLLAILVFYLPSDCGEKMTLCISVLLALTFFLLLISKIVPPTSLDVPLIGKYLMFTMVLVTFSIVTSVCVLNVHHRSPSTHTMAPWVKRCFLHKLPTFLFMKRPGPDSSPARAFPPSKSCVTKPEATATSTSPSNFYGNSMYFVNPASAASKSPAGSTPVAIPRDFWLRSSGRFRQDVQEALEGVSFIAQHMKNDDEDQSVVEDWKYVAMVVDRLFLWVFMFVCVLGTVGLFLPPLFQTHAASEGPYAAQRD

As for `Cc1nc(Nc2ccc(F)cc2)sc1C(=O)c1ccsc1` [LY2087101, [2-[(4-Fluorophenyl)amino]-4-methyl-5-thiazolyl]-3-thienylmethanone], the “R, potentiation ratio (PR)” value on (α4E92I)3(β2)2 nAChR stood at 10.9 ± 2.6; at (α4G67E)3(β2)2 nAChR [1] it was 5.2 ± 0.7; on (α4H142L)3(β2)2 nAChR it was 8.7 ± 0.5; at (α4H94N)3(β2)2 nAChR, 5.2 ± 1.0; on (α4L63I)3(β2)2 nAChR [2] it was 4.3 ± 0.4; at (α4Q150T)3(β2)2 nAChR [3] it was 4.3 ± 0.2. Further, the entries for the “R, potentiation ratio (PR)” value at (α4R148E)3(β2)2 nAChR, at (α4R65H)3(β2)2 nAChR and on (α4T152I)3(β2)2 nAChR [4] were 11.1 ± 1.2, 7.4 ± 1.3 and 4.3 ± 1.3, respectively.
With `C=CC(C)(C)c1[nH]c2cc(Br)ccc2c1CCNC` [dFBr], on α3β4 nAChR, the “potentiation of ACh responses” value is listed as “did not potentiate”. For the same compound, the “increase in ACh efficacy (Imax) by dFBr” value on (α4)3(β2)2 nAChR (ACh concentration-response curve) is ~ 4 fold. Further, the dFBr maximal potentiation on (α4)3(β2)2 nAChR is 400%. Besides, the “R, potentiation ratio (PR)” value is recorded as 3.5 ± 0.3^a on (α4L63I)3(β2)2 nAChR [5], 4.1 ± 0.2^a on (α4G67E)3(β2)2 nAChR [6], 3.9 ± 0.1^a on (α4Q150T)3(β2)2 nAChR [7] and 2.6 ± 0.4^a at (α4T152I)3(β2)2 nAChR [8]. Further, the compulsive-like behavior entry in assay [9] was “attenuate compulsive-like behavior”.
